According to PMC7168207, “Dibasic Derivatives of Phenylcarbamic Acid as Prospective Antibacterial Agents Interacting with Cytoplasmic Membrane” (Antibiotics, 2020):
Where “and” joins values, the source holds several entries; their conditions need not be identical. Equal entries are not always repeated.

Legend:
[1] = tested on: Candida albicans CCM 8261; assay: minimum fungistatic concentration, RPMI 1640; type: cell-based; settings: CCM8261, CA = C albicans CCM 8261, 48 h
Method: Fungistatic activity was tested similarly in RPMI (Roswell Park Memorial Institute) 1640 medium (Sigma, Pool, UK). […] A growth control and sterility control were included. The colonies of C. albicans grown overnight on Sabourad dextrose agar were suspended in sterile phosphate-buffered saline (PBS) to get cell density 0.5 McFarland. The inoculum was diluted to get a final concentration of 10^3 CFU/mL in the wells. Plates were inoculated and cultivated at 37 °C for 48 h. The minimum fungistatic concentration was visually evaluated as the lowest concentration of a tested compound, which inhibited 100% of yeast growth. 5-Flucytosin (Sigma, UK) was used as a positive control.

[2] = tested on: S. aureus ATCC 29213; assay: crystal violet uptake (membrane permeability); type: cell-based, Staphylococcus aureus; settings: 64 µg/mL, 1 h; two-way ANOVA, Tukey's test, p < 0.05
Method: The alternation in membrane permeability was detected by crystal violet assay. Bacterial suspension treated by compounds 1f, 1g, and 1h (all 64 µg/mL) for 1 h was prepared. The uptake of crystal violet was expressed as a percentage compared to the original crystal violet solution.
The method of crystal violet uptake was used to study membrane alteration. Bacterial suspension was cultivated to log phase in CaMH and then harvested at 4500 rpm for 5 min. The cells were washed twice and resuspended in PBS containing 64 µg/mL of the tested compounds. […] A growth control without antibiotics and a control containing the same amount of DMSO as treated tubes were included. The tubes were cultivated at 37 °C for 1 h. After that, the tubes were centrifuged at 4500 rpm for 15 min and washed twice in PBS. The cells were resuspended in PBS containing crystal violet (10 µg/mL). After 15 min incubation at 37 °C and centrifugation (15 min, 4500 rpm), the absorbance of supernatant at 595 nm was measured. The experiment was repeated three times, and the results were averaged. The percentage of crystal violet uptake was counted according to the equation:(1) % of uptake = OD595 of sample/OD595 of crystal violet solution × 100

CCCCCOc1cccc(NC(=O)OC(CN(CCC)CCC)CN2CCCC2)c1.Cl.Cl (centres unmarked) [1f, 1-[3-(dipropylammonio)-2-({[3-(pentyloxy)phenyl]carbamoyl}-oxy)propyl]pyrrolidinium dichloride]
MIC [1]: 128 µg/mL and 252 µM
crystal violet uptake compared with 1% Tween 20 (positive control) [2]: No statistically significant difference
